Results from publication PMC3491036 (PLoS ONE, 2012).
Like-named read-outs stand apart in the source and are kept apart here. Blank lines part the entries; values can stand above or below the molecule they belong to.

How the values were obtained:
[1] = target: XA binding sites; test: Displacement of [3H]XA specific binding by competitors; parameters: species or system rat; conditions: for displacement of radioactive XA specific binding: compound at 200 µM, displacement by 200 µM XA set at 100%
Method: Membranes (from brain or cell cultures) were incubated for 30 min at 0°C in 50 mM Pipes buffer, pH 7.4 in the presence of [^3H]-XA (2 µCi per µmole total XA at various concentrations). Non-specific binding was determined with 1 mM non-radioactive XA in the medium. Bound from free ligand was separated by rapid filtration on 25 mm Whatman GF/B filters and washing with incubation buffer (3×3 ml at 0°C). Radioactivity on filters was measured by liquid scintillation counting.
Two approaches were used for screening the pharmacological properties of XA specific binding. First, we tested at rather high concentration (200 µM) a battery of putative ligands for these sites. […] The fact that glutamate displaced not more than 10% of radioactive XA eliminates possible binding of XA on glutamate receptors under our conditions.

[2] = test system: differentiated NCB-20 cells; test: Cell-attached patch-clamp recording; assay type: cell-based, mouse neuroblastoma / Chinese hamster brain cell hybrid
Method: (§1) NCB-20 cells were plated at low density (10^4 cells/dish) in 35-mm dishes and differentiated with 1 mM db-cAMP. The culture medium was replaced twice a week and the cells were used after 5 days in culture. Cells were recorded either in cell-attached or whole-cell configuration of the patch-clamp technique using an Axopatch-B200 amplifier (Axon Instruments, CA, USA) in its voltage-clamp mode. […] Junction potentials were calculated using the routine procedure in the Clampex software (Axon instruments, CA, USA) and taken into account for current-voltage (I–V) relationships and reversal potential calculation according to the recording configuration.
For cell-attached recording the pipette was filled with a medium containing (in mM): N-Methyl-D-Glucamine (NMDG) chloride 140, KCl 1, MgCl2 10, EGTA 5, TEA-Cl 15, HEPES 10, pH = 7.4. To maintain the cell membrane potential close to zero, the recorded cells were continuously superfused with a bath solution containing (in mM): KCl 140, NaCl 1, MgCl2 1, CaCl2 0.5, EGTA-K 1, HEPES 10, D-glucose 10, pH = 7.4. […] Drugs were dissolved in DMSO and diluted in control solutions such that DMSO in the applied solution was diluted by a factor of at least 10^4. Drugs were applied to the recorded cells through a multi-barrel perfusion system, the rapid solution exchanger RCS-160 (Bio-Logic, Grenoble, France). […] The first tube was filled with control solution and was used to maintain a continuous superfusion of the recorded cell between applications. The selected tube was placed in front of the cell by axial rotation of calibrated angles and the application started when the selected tube takes place in front of the cell.
(§2) Data were analyzed offline using the clampfit routine of the Pclamp software package. The given results are means±SEM and statistical significance of the difference between means was determined using one way ANOVA followed by Dunnett's Multiple Comparison test.

[3] = test system: XA binding sites on crude synaptosomal membranes from rat brain; test: [3H]-XA saturation and kinetic binding on crude synaptosomal membranes from rat brain
Method: Brains were rapidly extracted from adult male Wistar rats killed by decapitation after being stunned. All the following procedures were done with buffers cooled at 0°C. Brains were homogenized with a motor driven Teflon/glass apparatus in 10 vol (W/V) of sucrose 0.32 M containing potassium phosphate buffer pH 7.2 and 2 mM EDTA. After centrifugation at 1,500 g for 10 min to remove the crude nuclear fraction, the supernatant was spun at 35,000 g for 20 min. The pellet obtained was resuspended in lysis buffer (2 mM EDTA/water pH 6.0 at 0°C, spun at 100,000 g for 20 min). After washing the pellet with potassium phosphate buffer 50 mM, pH 6.0, the crude membrane fraction was directly used for further experiments or stored at −80°C.
(§3) Bound from free ligand was separated by rapid filtration on 25 mm Whatman GF/B filters and washing with incubation buffer (3×3 ml at 0°C). Radioactivity on filters was measured by liquid scintillation counting.

[4] = test system: XA binding sites on IMR-32 neuroblastoma cells; test: [3H]-XA saturation binding on IMR-32 neuroblastoma cell membranes; parameters: species or system human; conditions: IMR-32 membranes, read-out: dissociation constant (Kd)
Method: Cultures were maintained for one week at 37°C in the presence of CO2 (5%).
(§4) Neurons were scraped into potassium phosphate buffer 50 mM, EDTA 2 mM, pH 6.0 at 0°C. After centrifugation at 2,000 g for 3 min to eliminate nuclei and large fragments, the supernatant was spun down at 15,000 g for 10 min; the pellet was washed with the same buffer and directly used for binding experiments.
as §3

[5] = test system: XA binding sites on NCB-20 neuroblastoma cells; test: [3H]-XA saturation binding on NCB-20 neuroblastoma cell membranes; parameters: species or system mouse neuroblastoma / Chinese hamster brain cell hybrid; conditions: NCB-20 membranes, read-out: dissociation constant (Kd)
Method: as §4, §3

[6] = test system: 75 transmembrane and soluble receptors, ion channels and monoamine transporters; test: Cerep high-throughput profile screening; assay type: binding; conditions: XA at 10 µM
Method: Secondly, to extend the pharmacological profile of XA, this compound was tested on high-throughput profile screening which involved a collection of 75 transmembrane and soluble receptors, ion channels and monoamine transporters (Cerep, France Laboratories, Poitiers). XA was tested on these collections of proteins at 10 µM concentration.

[7] = test system: rat brain synaptosomal membranes; conditions: read-out: EC50 of GTP-γ-S binding; XA 0.5 to 50 µM, 5 µM GDP, 20 mM MgCl2
Method: The Scintillation Proximity Assay (SPA) of Amersham was used. […] Brain synaptosomal membranes were thus incubated in assay buffer (pH 7.4) containing 20 mM HEPES, 100 mM NaCl, 20 mM MgCl2 with 0.3 nM [^35S]GTP-γ-S and 5 µM GDP for 30 min at room temperature. Non-specific binding was determined in the presence of 200 µM GTP. WGA SPA beads were added and the mixture was incubated at room temperature for a further 30 min. The plates were centrifuged at 1,200 g for 5 min and SPA cpm were determined by scintillation counting.

[8] = test system: differentiated NCB-20 cells; test: cells
Method: as §1, §2

[9] = test system: NCB-20 cells; test: Fluo-4 monitoring of [Ca2+]i changes; assay type: cell-based, mouse neuroblastoma / Chinese hamster brain cell hybrid
Method: The method of cellular calcium measurement used was as described previously. Briefly, NCB-20 cells were plated in glass-bottomed culture dishes and incubated at 37°C for four days. […] Then the cells were washed with Krebs for 30 min at room temperature in the dark. All settings of the laser (Argon-Krypton laser, turned to 488 nm), optical filter (BF 530/30) and microscope (Leica TCS-SP confocal inverted microscope) as well as data acquisition were controlled by the LCS (Leica Confocal System) software.
Images were recorded at a frequency of 0.1 Hz. Analysis was performed by defining regions of interest (ROI) in the first image. Values are expressed as the percentage of fluorescence change with respect to control and calculated as F/F 0 (%) (where F is the fluorescence intensity at a given time and F 0 the basal fluorescence intensity at the beginning of the experiment).
The cells were continuously superfused with normal Krebs medium and transiently submitted to the tested drug using a peristaltic pump with a flow rate of 1 ml/min. For each analyzed cell, the mean and the standard deviation (SD) of the F/F 0 of fluorescence were measured during 1–2 min before (base line) and after (signal) drug application and compared. Statistical significance of the difference between means was determined using one way ANOVA followed by Dunnett's Multiple Comparison Test for repeated measurements on absolute levels of fluo-4 fluorescence.

[10] = test system: various cell cultures; conditions: concentration of 10 µM; cited from earlier work
[11] = peripheral administration; cited from earlier work
[12] = frequency histogram of the illustrated XA response
[13] = illustrated response to 10 µM XA, NMDG-Cl pipette, ramp protocol

IC50 [1]: 350 nM
SMILES: O=C(O)c1cc(O)c2c(Cl)cc(Cl)c(O)c2n1 [NCS-482]
functional properties in patch-clamp experiments [2]: agonistic

SMILES: O=C(O)c1cc(O)c2cccc(O)c2n1 [XA, Xanthurenic acid]
Kob ([3]; [3H]-XA 0.2 µM, pH 7.4, 0°C): 1.44 min⁻¹
Kd ([3]; from Kob and Koff, read-out: calculated Kd (from rate constants)): 1400 nM
Kd ([3]; saturation experiments, crude brain synaptosomal membranes, pH 7.4, 0°C, read-out: dissociation constant (Kd)): 740 nM
Kd [4]: 750 nM
Kd [5]: 1300 nM
IC50 [1]: 300 nM
competition on the binding of specific ligands of the 75 proteins [6]: No significant competitive properties
effect on adenosine, benzodiazepine, dopamine, GABA, canabinoid, histamine, muscarinic, opioid, purinergic and serotonin receptors [6]: no effect
EC50 [7]: 2000 ± 1900 nM
Hill coefficient ([8]; Hill fit of dose-response): 3.5
maximal conductance ([8]; Hill fit of dose-response): 12.5 nS
cells tested showing an XA induced response ([8]; XA 1 to 30 µM, whole-cell): about 71%
reversal potential of XA-induced current ([8]; high chloride pipette medium): −3.3±4.0 mV
reversal potential of XA-induced current ([8]; low chloride pipette medium): −3.8±2.5 mV
EC50 ([8]; read-out: EC50 of XA activated conductance): 11700 ± 2200 nM
Er1, global mean value ([2]; all XA responses, mean ± SEM): −32.2±4.0 mV
Er2, global mean value ([2]; all XA responses, mean ± SEM): −13.9±1.1 mV
Er3, global mean value ([2]; all XA responses, mean ± SEM): −1.0±0.6 mV
Er4, global mean value ([2]; all XA responses, mean ± SEM): 11.5±0.8 mV
Er5, global mean value ([2]; all XA responses, mean ± SEM): 31.1±2.0 mV
Er1, mean of Gaussian fit [2, 12]: −23.2 mV
Er2, mean of Gaussian fit [2, 12]: −9.6 mV
Er3, mean of Gaussian fit [2, 12]: 0.8 mV
Er4, mean of Gaussian fit [2, 12]: 12.6 mV
Er5, mean of Gaussian fit [2, 12]: 20.3 mV
reversal potential (Er), position 1 (initial value) [2, 13]: −9 mV
reversal potential (Er), position 2 [2, 13]: about 14 mV
reversal potential (Er), position 3 [2, 13]: ~25 mV
reversal potential (Er), position 4 [2, 13]: ~−1 mV
reversal potential (Er), position 5 [2, 13]: ~−26 mV
persistence of signal before returning to basal levels ([9]; 10 µM XA): about 5 min
start of signal after XA application ([9]; 10 µM XA): about 1 min
intensity of fluo-4 signal above basal levels ([9]; 10 µM XA, 6 min application): 60–80%
fluo-4 fluorescence (F/F0) ([9]; 25 µM XA after 5 min washout of NCS-486): 134.9±6.5%
mean apparent maximum of the response (F/F0) ([9]; XA 1 to 10 µM): about 157±3%
EC50 ([9]; read-out: EC50 of first (activation) phase of Ca2+ response): 1400 nM
toxicity in cell cultures [10]: apoptotic-like cell death
brain penetration [11]: penetrates the brain freely

IC50 [1]: 14600 nM
SMILES: Nc1cccc2c(O)cc(C(=O)O)nc12 [NCS-486]
functional properties in patch-clamp experiments [2]: antagonistic
reduction of the agonist-induced current-response ([2]; NCS-486 20 µM co-applied with 5 µM XT-21): 86.1±5.0%
reduction of the agonist-induced current-response ([2]; NCS-486 20 µM co-applied with 10 µM XA): 88.3±3.8%
reduction of the agonist-induced current-response ([2]; NCS-486 20 µM co-applied with 18 µM NCS-482): 88.7±3.2%
effect when applied alone ([2]; NCS-486 20 µM, 6 cells tested): did not have any effect by itself
fluo-4 fluorescence (F/F0) ([9]; 100 µM NCS-486 applied alone, 5 min): 83.9±2.7%
fluo-4 fluorescence (F/F0) ([9]; 100 µM NCS-486 with 25 µM XA, 5 min): 86.9±0.7%

displacement of radioactive XA specific binding [1]: 40%
SMILES: O=C(O)c1cccnc1C(=O)O [quinolinic acid]

displacement of radioactive XA specific binding [1]: 30%
SMILES: O=C(O)c1cc(=O)c2ccccc2[nH]1 [kynurenic acid]

SMILES: NCCCC(=O)O [GABA]
displacement of radioactive XA specific binding [1]: very low potency

IC50 [1]: 4600 nM
SMILES: O=C(O)c1cc(O)c2cc(-c3ccccc3)cc(O)c2n1 [XT-21]
functional properties in patch-clamp experiments [2]: agonistic
response amplitude relative to 10 µM XA ([2]; XT-21 5 µM, cell-attached): about 2.5 fold
response amplitude relative to 18 µM NCS-482 ([2]; XT-21 5 µM, cell-attached): ~1.5 fold

IC50 [1]: 41000 ± 5000 nM
displacement of radioactive XA specific binding [1]: 60%
SMILES: O=C(O)c1ccccn1 [picolinic acid]
